Converted amounts (≈) assume the structure as drawn. “Also recorded” adds a separate entry of the source. Counter-ions that a name gives are not always drawn. Like-named read-outs stand apart in the source and are kept apart here. Values belong to the compound of their own block, whether it stands above or below them.
How the values were obtained:
Escherichia coli TN 659 = assay: Increasing effect on antimicrobial activity of ampicillin and cefotiam by C-19393S2, E. coli TN 659; format: cell-based; details: read-out: Minimum Inhibitory Concentration
Text: (§1) *Clinically isolated strains having the ability to produce betalactamase
(§2) Medium: Heart Infusion Agar (Eiken Chemical Co., Japan)

[1] = tested on: Klebsiella pneumoniae TN 1725; assay: Increasing effect on antimicrobial activity of ampicillin and cefotiam by C-19393S2, K. pneumoniae TN 1725; format: cell-based; details: read-out: Minimum Inhibitory Concentration
Text: as §1, §2

Proteus vulgaris TN 224 = assay: Increasing effect on antimicrobial activity of ampicillin and cefotiam by C-19393S2, P. vulgaris TN 224; format: cell-based; details: read-out: Minimum Inhibitory Concentration
Text: as §1, §2

[2] = tested on: gram-positive and gram-negative bacteria; assay: Antimicrobial activity (in words); format: cell-based
Solubility = format: physicochemical
Stability = format: physicochemical
betalactamase = assay: Betalactamase inhibiting activity; format: biochemical
[3] = tested on: various bacteria which exhibit resistance to penicillin derivatives and/or cephalosporin derivatives; assay: Sensitivity of resistant bacteria to penicillin and/or cephalosporin derivatives; format: cell-based; details: to penicillin derivatives and/or cephalosporin derivatives (ampicillin, cefotiam)
Escherichia coli NIHJ = assay: Antimicrobial spectrum, MIC on bouillon agar, E. coli NIHJ; format: cell-based; details: read-out: Minimum Inhibitory Concentration
Text: (§3) The biological properties of C-19393S2 are described below. The antibiotic spectrum of C-19393S2 sodium salt against various microorganisms are shown below in Table 4.

[4] = tested on: Salmonella typhimurium IFO 12529; assay: Antimicrobial spectrum, MIC on bouillon agar, S. typhimurium; format: cell-based; details: Salmonella enterica, read-out: Minimum Inhibitory Concentration
Text: as §3

[5] = tested on: Klebsiella pneumoniae IFO 3318; assay: Antimicrobial spectrum, MIC on bouillon agar, K. pneumoniae; format: cell-based; details: IFO3318, read-out: Minimum Inhibitory Concentration
Text: as §3

[6] = tested on: Proteus vulgaris IFO 3045; assay: Antimicrobial spectrum, MIC on bouillon agar, P. vulgaris; format: cell-based; details: IFO3045, read-out: Minimum Inhibitory Concentration
Text: as §3

[7] = tested on: Proteus mirabilis IFO 3845; assay: Antimicrobial spectrum, MIC on bouillon agar, P. mirabilis; format: cell-based; details: IFO3845, read-out: Minimum Inhibitory Concentration
Text: as §3

[8] = tested on: Serratia marcescens IFO 12648; assay: Antimicrobial spectrum, MIC on bouillon agar, S. marcescens; format: cell-based; details: IFO12648, read-out: Minimum Inhibitory Concentration
Text: as §3

[9] = tested on: Alcaligenes faecalis IFO 13111; assay: Antimicrobial spectrum, MIC on bouillon agar, A. faecalis; format: cell-based; details: IFO13111, read-out: Minimum Inhibitory Concentration
Text: as §3

[10] = tested on: Pseudomonas aeruginosa IFO 3080; assay: Antimicrobial spectrum, MIC on bouillon agar, P. aeruginosa; format: cell-based; details: IFO3080, read-out: Minimum Inhibitory Concentration
Text: as §3

[11] = tested on: Comamonas terrigena IFO 13299; assay: Antimicrobial spectrum, MIC on bouillon agar, C. terrigena; format: cell-based; details: IFO13299, read-out: Minimum Inhibitory Concentration
Text: as §3

[12] = tested on: Staphylococcus aureus 209P; assay: Antimicrobial spectrum, MIC on bouillon agar, S. aureus; format: cell-based; details: read-out: Minimum Inhibitory Concentration
Text: as §3

Sarcina lutea IFO 3232 = assay: Antimicrobial spectrum, MIC on bouillon agar, S. lutea; format: cell-based; details: Micrococcus luteus, IFO3232, read-out: Minimum Inhibitory Concentration
Text: as §3

[13] = tested on: Bacillus subtilis IFO 3513; assay: Antimicrobial spectrum, MIC on bouillon agar, B. subtilis; format: cell-based; details: IFO3513, read-out: Minimum Inhibitory Concentration
Text: as §3

Bacillus cereus IFO 3460 = assay: Antimicrobial spectrum, MIC on bouillon agar, B. cereus; format: cell-based; details: IFO3460, read-out: Minimum Inhibitory Concentration
Text: as §3

[14] = Umezawa et al., The Journal of Antibiotics, Vol. 26, pages 51-54, 1973; cited from earlier work
[15] = TN659, Escherichia coli TN 659, C-19393S2 0, Heart Infusion Agar
[16] = TN659, Escherichia coli TN 659, with C-19393S2 1 μg/ml, Heart Infusion Agar
[17] = TN659, Escherichia coli TN 659, with C-19393S2 5 μg/ml, Heart Infusion Agar
[18] = TN1725, Klebsiella pneumoniae TN 1725, C-19393S2 0, Heart Infusion Agar
[19] = TN1725, Klebsiella pneumoniae TN 1725, with C-19393S2 1 μg/ml, Heart Infusion Agar
[20] = TN1725, Klebsiella pneumoniae TN 1725, with C-19393S2 5 μg/ml, Heart Infusion Agar
[21] = TN224, Proteus vulgaris TN 224, C-19393S2 0, Heart Infusion Agar
[22] = TN224, Proteus vulgaris TN 224, with C-19393S2 1 μg/ml, Heart Infusion Agar
[23] = TN224, Proteus vulgaris TN 224, with C-19393S2 5 μg/ml, Heart Infusion Agar
[24] = aqueous solution in a neutral pH region
[25] = comparison with MM-4550 (MC 696-SY2-A)

MIC (Escherichia coli TN 659; [15]): > 800 µg/mL
MIC (Escherichia coli TN 659; [16]): 3.13 µg/mL (≈ 8.96 µM)
MIC (Escherichia coli TN 659; [17]): ≤ 0.003 µg/mL
MIC [1, 18]: 800 µg/mL (≈ 2290 µM)
MIC [1, 19]: 50 µg/mL (≈ 143 µM)
MIC [1, 20]: 0.78 µg/mL (≈ 2.23 µM)
MIC (Proteus vulgaris TN 224; [21]): 400 µg/mL (≈ 1140 µM)
MIC (Proteus vulgaris TN 224; [22]): 1.56 µg/mL (≈ 4.46 µM)
MIC (Proteus vulgaris TN 224; [23]): 1.56 µg/mL (≈ 4.46 µM)
SMILES: CC1(C)S[C@@H]2[C@H](NC(=O)[C@H](N)c3ccccc3)C(=O)N2[C@H]1C(=O)O [Ampicillin]

SMILES: CC(=O)N/C=C/[S+]([O-])C1=C(C(=O)O)N2C(=O)C(C(C)(C)O)C2C1 (stereo not shown) [Antibiotic C-19393H2]
antimicrobial activity [2]: exhibits antibacterial activity against gram-positive and gram-negative bacteria; also recorded: has antimicrobial activity against gram-positive and gram-negative bacteria
Solubility (Solubility; water, listed as H2): water-soluble
Stability (Stability; [24]): stable
Stability (Stability; [25]): stable

SMILES: CC(=O)N/C=C/[S+]([O-])C1=C(C(=O)O)N2C(=O)C(C(C)(C)OS(=O)(=O)O)C2C1 (stereo not shown) [Antibiotic C-19393S2]
antimicrobial activity [2]: exhibits an antimicrobial activity against gram-positive and gram-negative bacteria
antimicrobial activity ([2]; listed as Antibiotic C-19393S2): active against gram-positive and gram-negative bacteria
betalactamase inhibiting activity (betalactamase): strong betalactamase inhibiting activity; also recorded: exhibits a beta-lactamase inhibiting activity
increase of sensitivity of resistant bacteria [3]: increases markedly the sensitivity; also recorded: markedly increases the sensitivity
Solubility (Solubility; water): water-soluble
Stability (Stability; [24]): stable
Stability (Stability; [25]): stable

SMILES: CC(=O)N/C=C/[S+]([O-])C1=C(C(=O)O)N2C(=O)C(C(C)(C)O)C2C1 (stereo not shown) [C-19393H2 sodium salt]
MIC (Escherichia coli NIHJ): 0.08 µg/mL
MIC [4]: 0.31 µg/mL
MIC [5]: 0.31 µg/mL
MIC [6]: 5 µg/mL
MIC [7]: 5 µg/mL
MIC [8]: 0.31 µg/mL
MIC [9]: 5 µg/mL
MIC [10]: 10 µg/mL
MIC [11]: 0.16 µg/mL
MIC [12]: 0.63 µg/mL
MIC (Sarcina lutea IFO 3232): 0.31 µg/mL
MIC [13]: 0.31 µg/mL
MIC (Bacillus cereus IFO 3460): 10 µg/mL
Solubility (Solubility; acetone): sparingly soluble
Solubility (Solubility; butanol): sparingly soluble
Solubility (Solubility; chloroform): Insoluble
Solubility (Solubility; ethanol): sparingly soluble
Solubility (Solubility; ethyl acetate): Insoluble
Solubility (Solubility; methanol): soluble
Solubility (Solubility; water): soluble

SMILES: CC(=O)N/C=C/[S+]([O-])C1=C(C(=O)O)N2C(=O)C(C(C)(C)OS(=O)(=O)O)C2C1 (stereo not shown) [C-19393S2 disodium salt]
MIC (Escherichia coli NIHJ): 12.5 to 25 µg/mL
MIC [4]: 12.5 µg/mL
MIC [5]: 12.5 µg/mL
MIC [6]: 100 µg/mL
MIC [7]: 50 µg/mL
MIC [8]: 25 µg/mL
MIC [9]: 50 µg/mL
MIC [10]: > 100 µg/mL
MIC [11]: 6.25 µg/mL
MIC [12]: 12.5 µg/mL
MIC (Sarcina lutea IFO 3232): 12.5 µg/mL
MIC [13]: 12.5 µg/mL
MIC (Bacillus cereus IFO 3460): > 100 µg/mL
Solubility (Solubility; acetic acid): soluble
Solubility (Solubility; acetone): Insoluble
Solubility (Solubility; butanol): sparingly soluble
Solubility (Solubility; chloroform): Insoluble
Solubility (Solubility; dimethyl sulfoxide): soluble
Solubility (Solubility; ethanol): sparingly soluble
Solubility (Solubility; ethyl acetate): Insoluble
Solubility (Solubility; methanol): soluble
Solubility (Solubility; pyridine): sparingly soluble
Solubility (Solubility; water): readily soluble

MIC (Escherichia coli TN 659; [15]): 0.2 µg/mL (≈ 0.38 µM)
MIC (Escherichia coli TN 659; [16]): 0.1 µg/mL (≈ 0.19 µM)
MIC (Escherichia coli TN 659; [17]): 0.006 µg/mL (≈ 0.0114 µM)
MIC [1, 18]: 200 µg/mL (≈ 380 µM)
MIC [1, 19]: 0.2 µg/mL (≈ 0.38 µM)
MIC [1, 20]: 0.02 µg/mL (≈ 0.038 µM)
MIC (Proteus vulgaris TN 224; [21]): 200 µg/mL (≈ 380 µM)
MIC (Proteus vulgaris TN 224; [22]): 0.2 µg/mL (≈ 0.38 µM)
MIC (Proteus vulgaris TN 224; [23]): 0.2 µg/mL (≈ 0.38 µM)
SMILES: CN(C)CCn1nnnc1SCC1=C(C(=O)O)N2C(=O)[C@@H](NC(=O)Cc3csc(N)n3)[C@H]2SC1 [Cefotiam]

SMILES: CC(=O)N/C=C/[S+]([O-])C1=C(C(=O)O)N2C(=O)C(C(C)OS(=O)(=O)O)C2C1 (stereo not shown) [MC 696-SY2-A]
Stability [14]: very unstable
